Results reported in ChEMBL document CHEMBL1156829 (Proc Natl Acad Sci U S A, 2008).

Experiments:
Plasmodium falciparum [1] = experiment: NOVARTIS: Inhibition of Plasmodium falciparum W2 (drug-resistant) proliferation in erythrocyte-based infection assay; type: functional, organism-based; settings: read-out: EC50
[2] = NOVARTIS: Cytotoxicity against human hepatocellular carcinoma cell line (Huh7); type: toxicity, cell-based, Huh-7; settings: Huh7 cells (hepatocellular carcinoma cell line)
Plasmodium falciparum [3] = experiment: NOVARTIS: Inhibition of Plasmodium falciparum 3D7 (drug-susceptible) proliferation in erythrocyte-based infection assay; type: functional, organism-based

| SMILES | EC50 (Plasmodium falciparum [1]; Plasmodium falciparum, W2) [nM] | CC50 [2] [nM] | EC50 (Plasmodium falciparum [3]; Plasmodium falciparum, 3D7) [nM] | EC50 (Plasmodium falciparum [1]) [nM] | EC50 (Plasmodium falciparum [3]) [nM] |
| --- | --- | --- | --- | --- | --- |
| CC(C(=O)NN=C1CCN(C)CC1)N(c1ccccc1)S(C)(=O)=O (configuration not stated) | 1270 | > 10000 | > 1250 |  |  |
| CCCCCCN(C(=O)CCc1ccccc1)C(CC)c1nc2ccccc2c(=O)n1-c1ccc(Cl)cc1 (configuration not stated) | 26.7 | > 10000 | 1160 |  |  |
| OCc1nc2ccccc2n1CCOc1ccccc1 | 23.3 | > 10000 | > 1250 |  |  |
| COC(=O)c1c(-c2c(Cl)cccc2Cl)noc1/C=C/Nc1ccccc1 | < 6.76 | > 10000 | 290 |  |  |
| CCOc1ccccc1-n1c(C(C)N(CCc2ccccc2)C(=O)c2ccc(Br)cc2)nc2ccccc2c1=O (configuration not stated) | 834 | > 10000 | > 1250 |  |  |
| c1ccc2c(NCCc3c[nH]c4ccccc34)c3ccccc3nc2c1 | 31.6 | 7080 | 86 |  |  |
| CCCCCCn1c2c(c(=N)c3ccccc31)CCC2 | > 1120 | > 10000 | 681 |  |  |
| Cc1cc(Nc2cccc(F)c2)nc(NCc2ccccc2)n1 | 664 | 20800 | 72.2 |  |  |
| CN(C)c1cc(NC(=O)Nc2cccc(Cl)c2)c2ccccc2n1 | 292 | > 10000 | 76.5 |  |  |
| COc1cc(C=NNc2nc3nonc3nc2Nc2ccc(Cl)cc2)ccc1O | 1030 | > 10000 | > 1250 |  |  |
| CCOc1ccc(C2C(C(=O)OCCc3ccccc3)=C(C)NC3=C2C(=O)CC(C)(C)C3)cc1 (configuration not stated) | 2940 | > 100000 | 10700 |  |  |
| O=C1CCC(c2ccc(Cl)c(Cl)c2)c2ccc(O)cc21 (configuration not stated) | > 914 | > 9270 | 449 |  |  |
| Cc1cc(C)n(CC(O)Cn2c3ccc(Br)cc3c3cc(Br)ccc32)n1 (configuration not stated) | 284 | 45400 | 1040 |  |  |
| O=C(NCCCCNc1ccnc2cc(Cl)ccc12)c1ccccc1Cl | < 13.7 | > 12000 | 761 |  |  |
| CCCOc1ccc(Cc2c(C)nc3ccc(Br)cc3c2O)cc1 | 1100 | > 10000 | 1030 |  |  |
| O=C(Nc1ccccc1)Nc1ccc(S(=O)(=O)Nc2ccc(Br)cc2)cc1 | 1160 | > 10000 | 662 |  |  |
| O=C(NCc1ccccc1)C(c1ccc(F)cc1)N(Cc1ccco1)C(=O)c1cnccn1 (configuration not stated) | 2520 | > 100000 | > 8940 |  |  |
| Cc1ccccc1-c1cccc(CN2CCCCC2CCn2cc(C(=O)NC3CC3)nn2)c1 (configuration not stated) | 685 | > 100000 | 1470 |  |  |
| O=C(NC1CCCCC1)c1noc2c1CCCCC2 | 5670 | > 100000 | > 12500 |  |  |
| Oc1cccc2ccc(Nc3ccccn3)nc12 | 302 | 8870 | 679 |  |  |
| O=C(Nc1cnc2ccccc2c1)c1cccc(-n2cnnn2)c1 | 182 | > 10000 | 174 |  |  |
| Cc1cccc(CCNc2cc(C)nc3ncnn23)c1 | 1080 | > 100000 | 841 |  |  |
| CC1=CC(=O)OC[C@]23CCC(C)=C[C@H]2O[C@@H]2C[C@@H](OC(=O)C=CC=CC(=O)OCC1)[C@@]3(C)[C@]21CO1 |  | 206 |  | 9.18 | 3.91 |

| SMILES | EC50 (Plasmodium falciparum [1]; Plasmodium falciparum, W2) [nM] | CC50 [2] [nM] | EC50 (Plasmodium falciparum [3]; Plasmodium falciparum, 3D7) [nM] | EC50 (Plasmodium falciparum [1]) [nM] | EC50 (Plasmodium falciparum [3]) [nM] |
| --- | --- | --- | --- | --- | --- |
| CCOC(=O)c1cccc(NC(=O)CCn2nc(C)c3c(C)n(-c4ccccc4)nc3c2=O)c1 | 4270 | > 100000 | 3060 |  |  |
| c1ccc2cc3c(N4CCN(CCCN5CCN(c6ccnc7cc8ccccc8cc67)CC5)CC4)ccnc3cc2c1 | 417 | > 10000 | 79.4 |  |  |
| CC(=O)Nc1ccc2c(c1)C(=O)N(C(C(=O)NC1CCCCC1)c1ccc([N+](=O)[O-])cc1)[C@@H](c1ccccc1)C(=O)N2 (some centres not stated) | > 873 | 7680 | > 1250 |  |  |
| CC(C)N1CC[C@@H](N2CCN(c3cccc(C(F)(F)F)c3)CC2)[C@@H](CCC(=O)N(C)C2CCN(C)CC2)C1 | 285 | 5130 | > 1040 |  |  |
| Cc1ccc(N(C(=O)c2snc(C(=O)NC3CCCCC3)c2N)C(C(=O)NCCc2ccccc2)c2ccc(O)cc2)c(C)c1 (configuration not stated) | 672 | > 100000 | 1480 |  |  |
| CC1CCN(c2nncc3ccccc23)CC1 | > 6050 | > 100000 | > 12500 |  |  |
| Clc1cccc(Nc2nc(NCc3ccco3)c3ccccc3n2)c1 | 203 | 16000 | 112 |  |  |
| O=C(c1ccc2nc(N3CCCCC3)sc2c1)N1CCN(Cc2ccccc2)CC1 | 503 | > 100000 | 907 |  |  |
| O=C(NC1CCN(CC(O)CN(Cc2ccccc2)S(=O)(=O)c2ccccc2)C1)c1ccccc1 (configuration not stated) | 56.9 | > 7270 | 81.9 |  |  |
| CN(C)CCCNc1ncnc2c1[nH]c1ccc(F)cc12 | 305 | 48700 | 93.1 |  |  |
| CN(CCCNc1ccnc2cc(Cl)ccc12)C(=O)c1cccc(Br)c1 | 137 | 9590 | 59.6 |  |  |
| CCC(CO)NCC(O)Cn1c2ccc(Br)cc2c2cc(Br)ccc21 (configuration not stated) | 126 | 11200 | 526 |  |  |
| O=C(CN1CCCC1)N1N=C(c2cccs2)CC1c1ccc(F)cc1 (configuration not stated) | 1200 | > 100000 | > 12500 |  |  |
| O=C(c1ccc(Cl)cc1Cl)N1CCCC(C(F)(F)F)C1 (configuration not stated) | 1400 | > 100000 | 663 |  |  |
| COc1cc2c3c(c4cc(OC)c(OC)cc4c2cc1OC)CN1CCC[C@@H]1C3 [TYLOPHORINE] | 963 | > 7910 | > 509 |  |  |
| CC(=O)c1cc(CN2CCC(C(=O)Nc3ccc(-n4nc(C)cc4C)cc3)CC2)cs1 | 665 | > 100000 | 969 |  |  |
| CN(C)c1ccc(/C=C/c2nc(=O)c3ccccc3o2)cc1 | 93.6 | > 10000 | 130 |  |  |
| CC(=O)N(C=C1Sc2ccccc2C1=O)c1ccc(C)cc1 | 1970 | > 100000 | 10700 |  |  |
| CCOC(=O)C1=C(C)NC2=C(C(=O)CC(c3ccc(OC)cc3)C2)C1c1cccs1 (configuration not stated) | 189 | > 100000 | 833 |  |  |
| CC(C)(C)CC(C)(C)Nc1c(-c2ccccc2OC(=O)c2ccccc2Cl)nc2ccccn12 | 58.8 | > 10000 | 822 |  |  |
| CC(C)CN1C(=O)c2ccccc2C(C(=O)Nc2ccc(F)cc2F)C1c1cccs1 (configuration not stated) | 129 | > 100000 | 219 |  |  |
| O=C1CC(c2ccccc2)CC2=C1C(c1cc(F)ccc1F)Nc1ccccc1N2 (configuration not stated) | 310 | > 100000 | 1020 |  |  |
| Cc1ccc([N+](=O)[O-])cc1-c1ccc(/C=C2/SC(=S)N(CC(=O)O)C2=O)o1 | > 940 | > 10000 | > 1250 |  |  |

| SMILES | EC50 (Plasmodium falciparum [1]; Plasmodium falciparum, W2) [nM] | CC50 [2] [nM] | EC50 (Plasmodium falciparum [3]; Plasmodium falciparum, 3D7) [nM] | EC50 (Plasmodium falciparum [1]) [nM] | EC50 (Plasmodium falciparum [3]) [nM] |
| --- | --- | --- | --- | --- | --- |
| COc1cc2nc(NCc3ccccn3)n3nc(-c4ccccc4)nc3c2cc1OC | 1910 | > 100000 | 3770 |  |  |
| COc1ccccc1/C=C/CN1CCN(c2ccccn2)CC1 | > 1150 | > 10000 | > 1630 |  |  |
| CN(CCCNc1ccnc2cc(Cl)ccc12)C(=O)CSc1ccccc1 | 20.3 | > 10000 | 7.17 |  |  |
| Nc1nc(N)c2cc(S(=O)(=O)c3ccc4ccccc4c3)ccc2n1 | 1710 | 49500 | 97.3 |  |  |
| CCN1/C(=C/c2sc3ccccc3[n+]2CC)C=Cc2cc(NC(C)=O)ccc21 | 225 | > 10000 | 255 |  |  |
| Oc1ccc(-c2ccccn2)cc1CNC1CCN(Cc2ccccc2)CC1 | 143 | 21000 | 411 |  |  |
| C=CCNC(=O)c1ccc2c(c1)N=C(CC(C)c1ccccc1)N(CC1CCCCC1)C2 (configuration not stated) | 1530 | > 10000 | > 1250 |  |  |
| COc1cc(NC(=O)C(F)(F)F)c(C(=O)c2ccc(C(F)(F)F)cc2)cc1OC | > 1200 | > 10000 | 1140 |  |  |
| O=C(NCCC(c1ccccc1)c1ccccc1)c1cccc([N+](=O)[O-])c1 | 618 | > 10000 | 302 |  |  |
| CCOc1cc(/C=C(\C#N)c2nc3ccccc3[nH]2)ccc1OCc1ccccc1C#N | 214 | > 10000 | > 1120 |  |  |
| Cc1ccn2c(NC(C)(C)CC(C)(C)C)c(-c3ccccc3OC(=O)c3cccs3)nc2c1 | 39.3 | > 10000 | 667 |  |  |
| O=C(NN=Cc1cc2ccccc2cc1O)c1cccnc1 | 946 | > 10000 | 871 |  |  |
| CCC(Oc1ccc(C(C)(C)CC)cc1C(C)(C)CC)C(=O)Nc1ccc(Cl)c([N+](=O)[O-])c1 (configuration not stated) | 349 | > 10000 | 275 |  |  |
| COc1cc(C=NNc2nc3cc(Cl)ccc3[nH]2)cc(OC)c1OC | 1080 | > 10000 | 904 |  |  |
| Oc1ccc(-c2ccc3c(c2)OCO3)cc1CNC1CCN(Cc2ccccc2)CC1 | 364 | 29900 | 598 |  |  |
| CC(=O)N(C1=C(N2CCCC2)C(=O)c2ccccc2C1=O)c1ccc(F)cc1 | 75.9 | 25800 | 646 |  |  |
| O=C(NNS(=O)(=O)c1ccccc1[N+](=O)[O-])c1ccccc1 | > 833 | > 10000 | > 1250 |  |  |
| O=C(NCC1CCCO1)c1ccc([N+](=O)[O-])cc1Cl (configuration not stated) | > 877 | > 10000 | > 1120 |  |  |
| CCCCNC(=O)CSCc1cnn(-c2ccccc2)c1-n1cccc1 | 257 | > 100000 | 253 |  |  |
| CCOC(=O)C1=C(C)N=c2sc(=Cc3ccc(I)o3)c(=O)n2C1c1ccccc1Cl (configuration not stated) | 570 | > 5490 | 1330 |  |  |
| COc1ccccc1NC(=O)CSc1nc2cccnc2n1-c1ccccc1OC | 848 | > 10000 | 833 |  |  |
| Cc1ccc2nc(C)cc(NCCCN(C)C)c2c1 | 824 | > 3620 | 410 |  |  |
| Cc1cc(Nc2cccc(C(F)(F)F)c2)nc(NCc2ccccc2)n1 | 553 | 15600 | 178 |  |  |
